Test [1] has as its system primary human T cells. As to the kind of experiment: FasL-induced apoptosis in activated primary T cells. Type of test: cell-based. As to conditions: anti-CD3, anti-CD28-activated primary human T cells.
Test [2] concerns the target T1, pro-CASP8 (Homo sapiens, UniProt Q14790, D374A/D384A).
T1 construct: a truncated CASP8 (residues 217-479) without the CARD domain; His6 (C); made in house; host or cells: E. coli BL21(DE3)pLysS
Briefly: Click probe 61 labeling of pro-CASP8 and its competition. Type of test: binding. As to conditions: 300 nM protein in MDA-MB-231 lysate; read-out: apparent IC50 for blockade of 61 labeling of pro-CASP8.

The test system of test [3] is Jurkat cells. Briefly: FasL-induced (extrinsic) apoptosis, CellTiter-Glo viability. Type of test: cell-based, human. Background: Cellular ATP, detected with luciferase, serves as a proxy for viable cell number.
For test [4], the target named is pro-CASP10 (Homo sapiens, UniProt Q92851). As to the kind of experiment: Blockade of probe 61 labeling of pro-CASP10. Format: binding. The note with it: 300 nM protein in MDA-MB-231 lysate; read-out: apparent IC50 for blockade of 61 labeling of pro-CASP10.
Test [5] concerns the target T2, CASP8 (Homo sapiens, UniProt Q14790).
T2 construct: caspases measured by quantitative proteomics in Jurkat cells treated with 7, 63-R, or 62 followed by probe 61; endogenous in cells; host or cells: Jurkat cells (SILAC), treated in situ
Briefly: Quantitative proteomics (ABPP-SILAC) with probe 61 in cells. Type of test: cell-based. The note with it: primary human T cells and Jurkat cells.

Test [6] addresses T3, active CASP8 (Homo sapiens, UniProt Q14790). As to the kind of experiment: Rho-DEVD-AOMK probe labeling of active CASP8. As to conditions: 7 50 μM; Ac-DEVD-CHO 20 μM.
In test [7] the target is T3, active CASP8. Briefly: CASP8 in vitro activity assay (substrate). Type of test: biochemical. Details: recombinant, purified active-CASP8 and active-CASP3 added to MDA-MB-231 cell lysates; His6 (C); made in house; host or cells: E. coli BL21(DE3)pLysS. As to conditions: fragments 100 μM; DEVD-CHO 20 μM. As for the experimental part:
Caspase 3 and 8 assays were conducted with CASP8 activity assay kit (BioVision, K112-100) and Caspase 3 activity assay kit (Invitrogen, EnzChek® Caspase-3 Assay Kit), following the manufacturer's instructions. Briefly, recombinant Caspase 3 (10 μM) was added to soluble Ramos lysates (1 mg/mL) to a 100 nM final concentration of protease. Caspase 8 (30 μM) was added to soluble Ramos lysates to a 1 μM final concentration of protease. In triplicate, 50 μL lysate was treated with either DMSO, DEVD-CHO (“DEVD” disclosed as SEQ ID NO: 857) (20 μM) or the indicated compounds (100 μM) for 1 h, following which 50 μL of 2× reaction buffer containing 10 mM DTT and 5 μL substrate (4 mM stock in DMSO of IETD-AFC (“IETD” disclosed as SEQ ID NO: 858) for CASP8; 10 mM stock in DMSO of DEVD-AMC (“DEVD” disclosed as SEQ ID NO: 857) for CASP3) was added to each well and the samples were incubated at ambient temperature for 2 h. Caspase activity was measured from the increase in fluorescence (excitation 380 nm emission 460 nm). Experiments were performed in triplicate. Background was calculated from samples lacking the recombinant caspase.

In test [8] the target is T4, active CASP10 (Homo sapiens, UniProt Q92851).
T4 sequence (Q92851 220-415 limits assumed): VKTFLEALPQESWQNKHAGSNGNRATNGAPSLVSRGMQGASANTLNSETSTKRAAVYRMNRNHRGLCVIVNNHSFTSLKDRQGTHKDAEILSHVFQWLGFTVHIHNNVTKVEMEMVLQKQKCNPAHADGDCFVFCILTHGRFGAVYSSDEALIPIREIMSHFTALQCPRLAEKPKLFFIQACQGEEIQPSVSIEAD
T4 sequence (Q92851 416-521 limits assumed): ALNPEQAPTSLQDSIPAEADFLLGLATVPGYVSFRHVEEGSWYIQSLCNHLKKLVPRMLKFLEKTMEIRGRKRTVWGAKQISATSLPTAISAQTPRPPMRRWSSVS
Briefly: Active CASP10 activity assay (AEVD-AMC substrate). As to conditions: fragments 25 μM; DEVD-CHO 20 μM. Format: biochemical.

Test [9] concerns Jurkat cells. Briefly: Staurosporine-induced (intrinsic) apoptosis, CellTiter-Glo viability. Format: cell-based, human. As to conditions: 30 μM (VAD-FMK 100 μM), 30 min before STS, 6 h. As for the experimental part:
4 mL of Jurkat cells in RPMI (1.5 million cells/mL) were treated with the indicated compound at 30 μM for 30 min (50 mM stock solution in DMSO). Z-VAD-FMK (EMD Millipore Biosciences, 627610) and was used at a final concentration of 100 μM. After pre-incubation, FASL (4 μL of […] stock solution of SuperFasLigandm in water, final concentration=100 ng/mL, Enzo life Sciences) or staurosporine (8 μL of 1 mM stock solution in DMSO, final concentration=2 μM, Fisher Scientific, 50664333). […] The gels were transferred to nitrocellulose membranes and were immunoblotted overnight with the indicated antibodies. For measurements of cell viability, in quadruplicate for each condition, 150,000 cells (100 μL of 1.5 million cells/mL) were plated in Nunc™ MicroWell™ 96-Well Optical-Bottom Plates with Polymer Base (Fisher Scientific). Compounds, FASL and STS were used at the same concentrations indicated above with a 30 minute pre-incubation with compound, followed by 6 hours with either STS or FASL or DMSO. Cell viability was measured with CellTiter-Glo® Luminescent Cell Viability Assay (Promega) and was read on a Biotech Synergy 4 plate reader.

*: point of attachment. Cbz = O=C(OCc1ccccc1)*; CH2F = FC*

The IC50 is the midpoint of a concentration-inhibition curve.

T3 sequence (Q14790 217-374 limits assumed): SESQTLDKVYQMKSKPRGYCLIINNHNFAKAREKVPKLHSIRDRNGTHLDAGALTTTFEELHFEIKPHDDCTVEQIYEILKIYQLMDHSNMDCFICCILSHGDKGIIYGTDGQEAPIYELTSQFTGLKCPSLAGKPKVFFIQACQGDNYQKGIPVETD
T3 sequence (Q14790 385-479 limits assumed): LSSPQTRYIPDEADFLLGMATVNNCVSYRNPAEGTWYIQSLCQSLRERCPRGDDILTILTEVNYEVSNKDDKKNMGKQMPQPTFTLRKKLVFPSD
pro-CASP10, sequence (Q92851 220-521): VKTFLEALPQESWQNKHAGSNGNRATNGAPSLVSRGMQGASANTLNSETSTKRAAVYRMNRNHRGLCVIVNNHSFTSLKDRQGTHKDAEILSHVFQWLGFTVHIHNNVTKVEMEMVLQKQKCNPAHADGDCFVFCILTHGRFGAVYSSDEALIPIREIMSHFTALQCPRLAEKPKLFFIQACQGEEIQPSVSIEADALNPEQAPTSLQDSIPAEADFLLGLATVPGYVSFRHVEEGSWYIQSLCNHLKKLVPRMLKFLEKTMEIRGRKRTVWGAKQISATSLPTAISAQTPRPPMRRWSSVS
T2 sequence (Q14790 217-479): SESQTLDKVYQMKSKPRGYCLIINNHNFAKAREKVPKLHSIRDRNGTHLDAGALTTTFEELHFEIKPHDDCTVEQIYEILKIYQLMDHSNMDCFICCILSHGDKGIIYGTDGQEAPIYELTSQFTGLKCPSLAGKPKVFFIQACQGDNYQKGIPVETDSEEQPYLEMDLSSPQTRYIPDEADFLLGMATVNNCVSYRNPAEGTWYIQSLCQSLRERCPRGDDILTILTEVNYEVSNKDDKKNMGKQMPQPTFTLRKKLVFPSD
T1 sequence (Q14790 217-479 D374A/D384A): as the sequence (Q14790 217-479) above, with D158A, D168A counted along it

Take `O=C(c1ccc(N2CCOCC2)cc1)N1CCC[C@@H](N(C(=O)CCl)c2ccccc2)C1` [63-R]: the FasL-induced apoptosis result was “substantial resistance” in test [1] and “fully blocked” in [3] (Jurkat cells, concentration series, 4 h). The IC50 in [2] was 0.7 µM; in test [4], more than 100 µM. Moreover, the “blockade of CASP8 (chemical proteomics with probe 61)” value in test [5] was “inhibited”.

Consider Ac-DEVD-CHO [reference compound], for which the “Rho-DEVD-AOMK labeling of active CASP8” value in [6] is “blocked”. The “CASP8 activity (substrate assay)” value in test [7] is “blocked”. Further, the “activity of active CASP10 (substrate assay)” value in test [8] is given as “inhibited”.

“Cbz-Val-Ala-Asp-CH2F [reference compound]”: in test [3] (30 μM (VAD-FMK 100 μM), 30 min before FASL, 6 h), the FasL-induced apoptosis result was “prevented”. Moreover, the STS-induced intrinsic apoptosis entry in [9] was “prevented”.

The values above are taken from patent US10670605B2, “Cysteine reactive probes and uses thereof” (The Scripps Research Institute, priority 2015, dated 2020).
